Test results: ChEMBL document CHEMBL4043123, “α-Geminal disubstituted pyrrolidine iminosugars and their C-4-fluoro analogues: Synthesis, glycosidase inhibition and molecular docking studies” (Bioorg Med Chem, 2017)
The source made the active and inactive calls. No cut-off for these calls is given here.

Assays:
[1] = system: Oryza sativa; experiment: Inhibition of rice alpha-glucosidase at 1 mM pre-incubated for 1 hr followed by p-nitrophenyl-alpha-D-glucopyranoside substrate addition by fluorescence detection based assay
[2] = system: Prunus dulcis; experiment: Inhibition of almond beta-glucosidase at 1 mM pre-incubated for 1 hr followed by p-nitrophenyl-beta-D-glucopyranoside, substrate addition by fluorescence detection based assay
[3] = system: Escherichia coli; experiment: Inhibition of Escherichia coli beta-galactosidase at 1 mM pre-incubated for 1 hr followed by p-nitrophenyl-beta-D-galactopyranoside substrate addition by fluorescence detection based assay
[4] = target: T1, Alpha-mannosidase (Canavalia ensiformis) (UniProt C0HJB3); experiment: Inhibition of jack beans alpha-mannosidase […] at 1 mM pre-incubated for 1 hr followed by […] substrate addition by fluorescence detection based assay
T1 sequence (whole entry): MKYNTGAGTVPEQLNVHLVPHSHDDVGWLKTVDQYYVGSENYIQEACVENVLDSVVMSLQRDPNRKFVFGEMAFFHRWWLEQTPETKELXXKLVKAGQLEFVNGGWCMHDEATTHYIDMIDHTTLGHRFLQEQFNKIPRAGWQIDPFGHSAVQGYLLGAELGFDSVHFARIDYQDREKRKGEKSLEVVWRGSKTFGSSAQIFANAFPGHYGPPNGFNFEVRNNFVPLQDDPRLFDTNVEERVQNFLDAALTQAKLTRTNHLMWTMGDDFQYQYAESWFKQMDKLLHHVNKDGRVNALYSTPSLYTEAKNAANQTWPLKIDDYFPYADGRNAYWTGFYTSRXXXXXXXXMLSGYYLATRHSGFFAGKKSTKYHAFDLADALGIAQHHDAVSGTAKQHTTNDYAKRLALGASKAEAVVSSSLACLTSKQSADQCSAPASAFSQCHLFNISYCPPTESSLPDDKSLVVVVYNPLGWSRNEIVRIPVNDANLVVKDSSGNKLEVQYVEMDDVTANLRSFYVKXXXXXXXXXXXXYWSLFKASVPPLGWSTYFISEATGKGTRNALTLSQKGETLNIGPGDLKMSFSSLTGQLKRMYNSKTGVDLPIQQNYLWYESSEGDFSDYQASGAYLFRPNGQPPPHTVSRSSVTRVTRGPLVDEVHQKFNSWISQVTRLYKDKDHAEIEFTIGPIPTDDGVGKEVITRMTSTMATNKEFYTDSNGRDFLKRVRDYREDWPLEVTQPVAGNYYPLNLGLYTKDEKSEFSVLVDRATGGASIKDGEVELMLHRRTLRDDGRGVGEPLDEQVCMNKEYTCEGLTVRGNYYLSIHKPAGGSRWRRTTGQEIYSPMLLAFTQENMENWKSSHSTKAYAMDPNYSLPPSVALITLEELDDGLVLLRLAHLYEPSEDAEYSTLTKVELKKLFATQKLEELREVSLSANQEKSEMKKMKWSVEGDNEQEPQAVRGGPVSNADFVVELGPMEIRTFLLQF

[5] = target: Alpha-galactosidase (Coffea arabica) (UniProt Q42656); experiment: Inhibition of coffee beans alpha-galactosidase at 1 mM pre-incubated for 1 hr followed by p-nitrophenyl-alpha-D-galactopyranoside substrate addition by fluorescence detection based assay
Chain of Alpha-galactosidase (Coffea arabica) (Q42656 16-378 limits assumed): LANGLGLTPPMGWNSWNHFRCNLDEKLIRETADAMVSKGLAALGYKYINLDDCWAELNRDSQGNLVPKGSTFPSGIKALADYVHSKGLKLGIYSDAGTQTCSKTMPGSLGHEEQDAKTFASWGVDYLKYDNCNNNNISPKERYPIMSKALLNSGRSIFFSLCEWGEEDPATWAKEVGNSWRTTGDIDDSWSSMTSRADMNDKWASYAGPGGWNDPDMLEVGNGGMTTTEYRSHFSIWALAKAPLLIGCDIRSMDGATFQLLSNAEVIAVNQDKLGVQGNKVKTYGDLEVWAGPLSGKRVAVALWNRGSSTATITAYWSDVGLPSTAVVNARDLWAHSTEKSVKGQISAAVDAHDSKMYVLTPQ

[6] = Inhibition of yeast alpha-glucosidase pre-incubated for 1 hr followed by p-nitrophenyl-alpha-D-glucopyranoside substrate addition by fluorescence detection based assay; parameters: species or system Saccharomyces cerevisiae
[7] = Competitive inhibition of Escherichia coli beta-galactosidase pre-incubated for 1 hr followed by p-nitrophenyl-beta-D-galactopyranoside substrate addition by fluorescence detection based assay
[8] = system: Saccharomyces cerevisiae; experiment: Inhibition of yeast alpha-glucosidase at 1 mM pre-incubated for 1 hr followed by p-nitrophenyl-alpha-D-glucopyranoside substrate addition by fluorescence detection based assay
[9] = Competitive inhibition of almond beta-glucosidase pre-incubated for 1 hr followed by p-nitrophenyl-beta-D-glucopyranoside, substrate addition by fluorescence detection based assay; parameters: species or system Prunus dulcis
[10] = Inhibition of rice alpha-glucosidase pre-incubated for 1 hr followed by p-nitrophenyl-alpha-D-glucopyranoside substrate addition by fluorescence detection based assay; parameters: species or system Oryza sativa
[11] = target: T2, Alpha-galactosidase (Coffea arabica, UniProt Q42656); experiment: Competitive inhibition of coffee beans alpha-galactosidase pre-incubated for 1 hr followed by p-nitrophenyl-alpha-D-galactopyranoside substrate addition by fluorescence detection based assay
T2 sequence (Q42656 whole entry): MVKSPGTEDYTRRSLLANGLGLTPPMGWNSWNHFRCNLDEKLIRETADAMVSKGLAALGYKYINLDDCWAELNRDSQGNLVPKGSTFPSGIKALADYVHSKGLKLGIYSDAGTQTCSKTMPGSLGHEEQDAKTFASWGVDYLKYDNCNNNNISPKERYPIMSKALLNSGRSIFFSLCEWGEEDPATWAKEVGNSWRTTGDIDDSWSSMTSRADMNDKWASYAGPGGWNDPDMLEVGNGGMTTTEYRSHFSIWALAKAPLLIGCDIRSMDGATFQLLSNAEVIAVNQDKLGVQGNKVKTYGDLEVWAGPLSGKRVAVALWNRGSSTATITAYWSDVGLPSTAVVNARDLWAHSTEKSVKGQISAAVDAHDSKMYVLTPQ

[12] = Inhibition of almond beta-glucosidase pre-incubated for 1 hr followed by p-nitrophenyl-beta-D-glucopyranoside, substrate addition by fluorescence detection based assay; parameters: species or system Prunus dulcis
[13] = target: T2, Alpha-galactosidase; experiment: Inhibition of coffee beans alpha-galactosidase pre-incubated for 1 hr followed by p-nitrophenyl-alpha-D-galactopyranoside substrate addition by fluorescence detection based assay

Row | Compound | inhibition [1] | inhibition [2] | inhibition [3] | inhibition [4] | inhibition [5] | IC50 [6] [nM] | Ki [6] [nM] | IC50 [7] [nM] | inhibition [8] | IC50 [9] [nM] | Ki [9] [nM] | IC50 [10] [nM] | Ki [10] [nM] | IC50 [11] [nM] | Ki [11] [nM] | IC50 [12] [nM] | Ki [12] [nM] | IC50 [13] [nM] | Ki [13] [nM] | Ki [7] [nM]
1 | O=C(O)[C@]1(CO)NC[C@H](F)[C@H]1O | inactive | inactive | – | inactive | inactive | – | – | 65 | inactive | – | – | – | – | – | – | – | – | – | – | 51
2 | OCC1(CO)NC[C@H](F)[C@H]1O | – | – | inactive | inactive | inactive | – | – | – | inactive | 184 | 144 | 463000 | 376000 | – | – | – | – | – | – | –
3 | O=C(O)[C@@]1(CO)NC[C@H](F)[C@H]1O | inactive | inactive | inactive | inactive | – | – | – | – | inactive | – | – | – | – | – | – | – | – | 392000 | 364000 | –

Now from value to compound, other results behind:

Row | inhibition [1] | inhibition [2] | inhibition [3] | inhibition [4] | inhibition [5] | IC50 [6] [nM] | Ki [6] [nM] | IC50 [7] [nM] | inhibition [8] | IC50 [9] [nM] | Ki [9] [nM] | IC50 [10] [nM] | Ki [10] [nM] | IC50 [11] [nM] | Ki [11] [nM] | IC50 [12] [nM] | Ki [12] [nM] | IC50 [13] [nM] | Ki [13] [nM] | Compound | Ki [7] [nM]
4 | inactive | inactive | inactive | inactive | inactive | 763000 | 619000 | – | – | – | – | – | – | – | – | – | – | – | – | O=C(O)[C@]1(CO)NC[C@@H](O)[C@H]1O | –
5 | inactive | inactive | inactive | inactive | – | – | – | – | inactive | – | – | – | – | 16 | 8 | – | – | – | – | OCC1(CO)NC[C@@H](O)[C@H]1O | –
6 | – | inactive | inactive | inactive | inactive | – | – | – | inactive | – | – | 50 | 28 | – | – | – | – | – | – | OCCN1C[C@H](O)[C@@H](O)[C@H](O)[C@H]1CO [MIGLITOL] | –
7 | inactive | – | inactive | inactive | – | – | – | – | inactive | – | – | – | – | 79 | 62 | 445000 | 349000 | – | – | O=C(O)[C@@]1(CO)NC[C@@H](O)[C@H]1O | –
